ChEMBL document CHEMBL4152382, “Discovery of Tarantula Venom-Derived NaV1.7-Inhibitory JzTx-V Peptide 5-Br-Trp24 Analogue AM-6120 with Systemic Block of Histamine-Induced Pruritis” (J Med Chem, 2018)

Molecular target: Sodium channel protein type 9 subunit alpha (Homo sapiens, UniProt Q15858)
Assay: Inhibition of human Nav1.7 expressed in HEK293 cells at holding potential of -125 mV […] by patchxpress-based electrophysiology assay
Assay type: cell-based

Sodium channel protein type 9 subunit alpha, sequence (Q15858 whole entry): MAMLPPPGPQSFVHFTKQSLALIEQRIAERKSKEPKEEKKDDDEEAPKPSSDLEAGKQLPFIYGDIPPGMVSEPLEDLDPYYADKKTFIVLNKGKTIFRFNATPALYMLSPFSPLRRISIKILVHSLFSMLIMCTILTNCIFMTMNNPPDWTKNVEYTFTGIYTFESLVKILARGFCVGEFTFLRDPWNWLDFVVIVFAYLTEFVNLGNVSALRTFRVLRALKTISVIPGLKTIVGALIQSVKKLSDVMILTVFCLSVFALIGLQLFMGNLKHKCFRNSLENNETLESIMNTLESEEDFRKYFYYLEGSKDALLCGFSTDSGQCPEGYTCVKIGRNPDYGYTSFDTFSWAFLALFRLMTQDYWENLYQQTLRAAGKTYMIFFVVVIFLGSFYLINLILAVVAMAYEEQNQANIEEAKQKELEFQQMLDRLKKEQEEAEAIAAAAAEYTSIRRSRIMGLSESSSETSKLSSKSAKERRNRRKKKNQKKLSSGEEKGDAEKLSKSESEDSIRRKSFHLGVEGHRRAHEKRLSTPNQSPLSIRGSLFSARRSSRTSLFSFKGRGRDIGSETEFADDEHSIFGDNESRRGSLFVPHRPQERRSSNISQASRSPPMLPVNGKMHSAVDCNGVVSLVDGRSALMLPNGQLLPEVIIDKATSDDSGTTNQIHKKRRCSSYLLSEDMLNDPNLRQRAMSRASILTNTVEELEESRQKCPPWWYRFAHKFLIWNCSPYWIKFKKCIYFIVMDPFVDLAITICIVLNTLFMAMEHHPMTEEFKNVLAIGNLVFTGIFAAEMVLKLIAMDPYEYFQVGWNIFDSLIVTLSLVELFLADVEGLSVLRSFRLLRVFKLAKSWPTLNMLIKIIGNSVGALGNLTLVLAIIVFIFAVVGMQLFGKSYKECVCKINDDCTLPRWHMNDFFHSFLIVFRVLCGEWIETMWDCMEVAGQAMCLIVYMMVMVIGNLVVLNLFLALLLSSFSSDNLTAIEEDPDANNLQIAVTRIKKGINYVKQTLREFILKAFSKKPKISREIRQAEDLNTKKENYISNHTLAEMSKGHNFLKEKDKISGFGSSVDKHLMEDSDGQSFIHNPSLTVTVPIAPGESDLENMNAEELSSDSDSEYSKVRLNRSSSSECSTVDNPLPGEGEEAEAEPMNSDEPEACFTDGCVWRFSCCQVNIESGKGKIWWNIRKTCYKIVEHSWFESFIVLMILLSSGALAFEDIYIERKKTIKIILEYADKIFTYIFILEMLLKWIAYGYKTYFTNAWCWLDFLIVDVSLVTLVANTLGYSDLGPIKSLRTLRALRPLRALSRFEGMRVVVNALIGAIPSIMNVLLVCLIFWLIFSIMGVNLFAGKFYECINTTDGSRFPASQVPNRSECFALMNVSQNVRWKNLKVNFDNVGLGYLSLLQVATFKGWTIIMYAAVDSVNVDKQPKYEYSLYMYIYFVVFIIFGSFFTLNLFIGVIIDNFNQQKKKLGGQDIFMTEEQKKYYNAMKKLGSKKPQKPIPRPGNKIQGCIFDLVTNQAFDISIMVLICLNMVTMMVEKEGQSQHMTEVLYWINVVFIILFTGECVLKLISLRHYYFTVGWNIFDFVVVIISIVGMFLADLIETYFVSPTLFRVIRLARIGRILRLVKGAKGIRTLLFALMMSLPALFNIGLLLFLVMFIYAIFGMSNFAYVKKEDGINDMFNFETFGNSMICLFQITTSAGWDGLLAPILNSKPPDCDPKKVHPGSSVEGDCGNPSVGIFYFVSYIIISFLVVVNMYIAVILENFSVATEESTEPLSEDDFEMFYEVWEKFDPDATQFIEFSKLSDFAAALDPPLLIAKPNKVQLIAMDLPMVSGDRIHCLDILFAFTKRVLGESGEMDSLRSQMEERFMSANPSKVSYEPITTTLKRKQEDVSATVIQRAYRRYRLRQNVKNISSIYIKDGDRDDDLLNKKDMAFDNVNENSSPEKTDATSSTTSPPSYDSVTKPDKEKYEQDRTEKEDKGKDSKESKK

SMILES | IC50
C#CC[C@H](N)C(=O)N[C@@H](Cc1ccc(O)cc1)C(=O)N[C@H]1CSSC[C@@H]2NC(=O)[C@@H]3CSSC[C@@H](C(=O)N[C@@H](CCCNC(=N)N)C(=O)N[C@@H](CCCCN)C(=O)N[C@@H](CCC(=O)O)C(=O)N[C@H](C(N)=O)[C@@H](C)CC)NC(=O)[C@H](Cc4c[nH]c5c(Br)cccc45)NC(=O)[C@H](CC(C)C)NC(=O)[C@H](CCCCN)NC(=O)[C@H](CSSC[C@H](NC(=O)[C@H]([C@@H](C)O)NC(=O)[C@H](Cc4c[nH]c5ccccc45)NC(=O)[C@H](CCCC)NC(=O)[C@H](Cc4c[nH]c5ccccc45)NC(=O)[C@H](CCCCN)NC(=O)[C@H](CCC(N)=O)NC1=O)C(=O)N[C@@H](CC(=O)O)C(=O)N[C@@H](CO)C(=O)N[C@@H](CCCCN)C(=O)N[C@@H](CCCNC(=N)N)C(=O)N[C@@H](C)C(=O)N3)NC(=O)[C@H](CCCNC(=N)N)NC(=O)[C@H](CC(C)C)NC(=O)CNC(=O)[C@H](CCC(=O)O)NC2=O | 24 nM
C#CC[C@H](NC(=O)[C@H](C)N)C(=O)N[C@H]1CSSC[C@@H]2NC(=O)[C@@H]3CSSC[C@@H](C(=O)N[C@@H](CCCNC(=N)N)C(=O)N[C@@H](CCCCN)C(=O)N[C@@H](CCC(=O)O)C(=O)N[C@H](C(N)=O)[C@@H](C)CC)NC(=O)[C@H](Cc4c[nH]c5ccc(Br)cc45)NC(=O)[C@H](CC(C)C)NC(=O)[C@H](CCCCN)NC(=O)[C@H](CSSC[C@H](NC(=O)[C@H]([C@@H](C)O)NC(=O)[C@H](Cc4c[nH]c5ccccc45)NC(=O)[C@H](CCCC)NC(=O)[C@H](Cc4c[nH]c5ccccc45)NC(=O)[C@H](CCCCN)NC(=O)[C@H](CCC(N)=O)NC1=O)C(=O)N[C@@H](CC(=O)O)C(=O)N[C@@H](CO)C(=O)N[C@@H](CCCCN)C(=O)N[C@@H](CCCNC(=N)N)C(=O)N[C@@H](C)C(=O)N3)NC(=O)[C@H](CCCNC(=N)N)NC(=O)[C@H](CC(C)C)NC(=O)CNC(=O)[C@H](CCC(=O)O)NC2=O | 1 nM
C#CC[C@H](N)C(=O)N[C@@H](Cc1ccc(O)cc1)C(=O)N[C@H]1CSSC[C@@H]2NC(=O)[C@@H]3CSSC[C@@H](C(=O)N[C@@H](CCCNC(=N)N)C(=O)N[C@@H](CCCCN)C(=O)N[C@@H](CCC(=O)O)C(=O)N[C@H](C(N)=O)[C@@H](C)CC)NC(=O)[C@H](Cc4ccccc4)NC(=O)[C@H](CC(C)C)NC(=O)[C@H](CCCCN)NC(=O)[C@H](CSSC[C@H](NC(=O)[C@H]([C@@H](C)O)NC(=O)[C@H](Cc4c[nH]c5ccccc45)NC(=O)[C@H](CCCC)NC(=O)[C@H](Cc4c[nH]c5ccccc45)NC(=O)[C@H](CCCCN)NC(=O)[C@H](CCC(N)=O)NC1=O)C(=O)N[C@@H](CC(=O)O)C(=O)N[C@@H](CO)C(=O)N[C@@H](CCCCN)C(=O)N[C@@H](CCCNC(=N)N)C(=O)N[C@@H](C)C(=O)N3)NC(=O)[C@H](CCCNC(=N)N)NC(=O)[C@H](CC(C)C)NC(=O)CNC(=O)[C@H](CCC(=O)O)NC2=O | 15 nM
C#CC[C@H](N)C(=O)N[C@@H](Cc1ccc(O)cc1)C(=O)N[C@H]1CSSC[C@@H]2NC(=O)[C@@H]3CSSC[C@@H](C(=O)N[C@@H](CCCNC(=N)N)C(=O)N[C@@H](CCCCN)C(=O)N[C@@H](CCC(=O)O)C(=O)N[C@@H](CCc4ccccc4)C(N)=O)NC(=O)[C@H](Cc4c[nH]c5ccc(Br)cc45)NC(=O)[C@H](CC(C)C)NC(=O)[C@H](CCCCN)NC(=O)[C@H](CSSC[C@H](NC(=O)[C@H]([C@@H](C)O)NC(=O)[C@H](Cc4c[nH]c5ccccc45)NC(=O)[C@H](CCCC)NC(=O)[C@H](Cc4c[nH]c5ccccc45)NC(=O)[C@H](CCCCN)NC(=O)[C@H](CCC(N)=O)NC1=O)C(=O)N[C@@H](CC(=O)O)C(=O)N[C@@H](CO)C(=O)N[C@@H](CCCCN)C(=O)N[C@@H](CCCNC(=N)N)C(=O)N[C@@H](C)C(=O)N3)NC(=O)[C@H](CCCNC(=N)N)NC(=O)[C@H](CC(C)C)NC(=O)CNC(=O)[C@H](CCC(=O)O)NC2=O | 1.1 nM
C#CC[C@H](N)C(=O)N[C@@H](Cc1ccc(O)cc1)C(=O)N[C@H]1CSSC[C@@H]2NC(=O)[C@@H]3CSSC[C@@H](C(=O)N[C@@H](CCCNC(=N)N)C(=O)N[C@@H](CCCCN)C(=O)N[C@@H](CCC(=O)O)C(=O)N[C@H](C(N)=O)[C@@H](C)CC)NC(=O)[C@H](Cc4c[nH]c5ccc(Br)cc45)NC(=O)[C@H](CC(C)C)NC(=O)[C@H](CCCCN)NC(=O)[C@H](CSSC[C@H](NC(=O)[C@H]([C@@H](C)O)NC(=O)[C@H](Cc4c[nH]c5ccccc45)NC(=O)[C@H](CCCC)NC(=O)[C@H](CCc4ccccc4)NC(=O)[C@H](CCCCN)NC(=O)[C@H](CCC(N)=O)NC1=O)C(=O)N[C@@H](CC(=O)O)C(=O)N[C@@H](CO)C(=O)N[C@@H](CCCCN)C(=O)N[C@@H](CCCNC(=N)N)C(=O)N[C@@H](C)C(=O)N3)NC(=O)[C@H](CCCNC(=N)N)NC(=O)[C@H](CC(C)C)NC(=O)CNC(=O)[C@H](CCC(=O)O)NC2=O | 1 nM
C#CC[C@H](N)C(=O)N[C@@H](Cc1ccc(O)cc1)C(=O)N[C@H]1CSSC[C@@H]2NC(=O)[C@@H]3CSSC[C@@H](C(=O)N[C@@H](CCCNC(=N)N)C(=O)N[C@@H](CCCCN)C(=O)N[C@@H](CCC(=O)O)C(=O)N[C@H](C(N)=O)[C@@H](C)CC)NC(=O)[C@H](Cc4c[nH]c5ccc(Br)cc45)NC(=O)[C@H](C4CCCCC4)NC(=O)[C@H](CCCCN)NC(=O)[C@H](CSSC[C@H](NC(=O)[C@H]([C@@H](C)O)NC(=O)[C@H](Cc4c[nH]c5ccccc45)NC(=O)[C@H](CCCC)NC(=O)[C@H](Cc4c[nH]c5ccccc45)NC(=O)[C@H](CCCCN)NC(=O)[C@H](CCC(N)=O)NC1=O)C(=O)N[C@@H](CC(=O)O)C(=O)N[C@@H](CO)C(=O)N[C@@H](CCCCN)C(=O)N[C@@H](CCCNC(=N)N)C(=O)N[C@@H](C)C(=O)N3)NC(=O)[C@H](CCCNC(=N)N)NC(=O)[C@H](CC(C)C)NC(=O)CNC(=O)[C@H](CCC(=O)O)NC2=O | 19.6 nM
C#CC[C@H](NC(=O)[C@@H](N)CCC(=O)O)C(=O)N[C@H]1CSSC[C@@H]2NC(=O)[C@@H]3CSSC[C@@H](C(=O)N[C@@H](CCCNC(=N)N)C(=O)N[C@@H](CCCCN)C(=O)N[C@@H](CCC(=O)O)C(=O)N[C@H](C(N)=O)[C@@H](C)CC)NC(=O)[C@H](Cc4c[nH]c5ccc(Br)cc45)NC(=O)[C@H](CC(C)C)NC(=O)[C@H](CCCCN)NC(=O)[C@H](CSSC[C@H](NC(=O)[C@H]([C@@H](C)O)NC(=O)[C@H](Cc4c[nH]c5ccccc45)NC(=O)[C@H](CCCC)NC(=O)[C@H](Cc4c[nH]c5ccccc45)NC(=O)[C@H](CCCCN)NC(=O)[C@H](CCC(N)=O)NC1=O)C(=O)N[C@@H](CC(=O)O)C(=O)N[C@@H](CO)C(=O)N[C@@H](CCCCN)C(=O)N[C@@H](CCCNC(=N)N)C(=O)N[C@@H](C)C(=O)N3)NC(=O)[C@H](CCCNC(=N)N)NC(=O)[C@H](CC(C)C)NC(=O)CNC(=O)[C@H](CCC(=O)O)NC2=O | 0.3 nM
C#CC[C@H](N)C(=O)N[C@@H](Cc1ccc(O)cc1)C(=O)N[C@H]1CSSC[C@@H]2NC(=O)[C@@H]3CSSC[C@@H](C(=O)N[C@@H](CCCNC(=N)N)C(=O)N[C@@H](CCCCN)C(=O)N[C@@H](CCC(=O)O)C(=O)N[C@H](C(N)=O)[C@@H](C)CC)NC(=O)[C@H](CCc4ccccc4)NC(=O)[C@H](CC(C)C)NC(=O)[C@H](CCCCN)NC(=O)[C@H](CSSC[C@H](NC(=O)[C@H]([C@@H](C)O)NC(=O)[C@H](Cc4c[nH]c5ccccc45)NC(=O)[C@H](CCCC)NC(=O)[C@H](Cc4c[nH]c5ccccc45)NC(=O)[C@H](CCCCN)NC(=O)[C@H](CCC(N)=O)NC1=O)C(=O)N[C@@H](CC(=O)O)C(=O)N[C@@H](CO)C(=O)N[C@@H](CCCCN)C(=O)N[C@@H](CCCNC(=N)N)C(=O)N[C@@H](C)C(=O)N3)NC(=O)[C@H](CCCNC(=N)N)NC(=O)[C@H](CC(C)C)NC(=O)CNC(=O)[C@H](CCC(=O)O)NC2=O | > 1000 nM
C#CC[C@H](N)C(=O)N[C@@H](Cc1ccc(O)cc1)C(=O)N[C@H]1CSSC[C@@H]2NC(=O)[C@@H]3CSSC[C@@H](C(=O)N[C@@H](CCCNC(=N)N)C(=O)N[C@@H](CCCCN)C(=O)N[C@@H](CCC(=O)O)C(=O)N[C@H](C(N)=O)[C@@H](C)CC)NC(=O)[C@H](Cc4c[nH]c5ccccc45)NC(=O)[C@H](CC(C)C)NC(=O)[C@H](CCCCN)NC(=O)[C@H](CSSC[C@H](NC(=O)[C@H]([C@@H](C)O)NC(=O)[C@H](Cc4c[nH]c5ccccc45)NC(=O)[C@H](CCCC)NC(=O)[C@H](Cc4c[nH]c5ccc(Br)cc45)NC(=O)[C@H](CCCCN)NC(=O)[C@H](CCC(N)=O)NC1=O)C(=O)N[C@@H](CC(=O)O)C(=O)N[C@@H](CO)C(=O)N[C@@H](CCCCN)C(=O)N[C@@H](CCCNC(=N)N)C(=O)N[C@@H](C)C(=O)N3)NC(=O)[C@H](CCCNC(=N)N)NC(=O)[C@H](CC(C)C)NC(=O)CNC(=O)[C@H](CCC(=O)O)NC2=O | 22 nM
C#CC[C@H](N)C(=O)N[C@@H](Cc1ccc(O)cc1)C(=O)N[C@H]1CSSC[C@@H]2NC(=O)[C@@H]3CSSC[C@@H](C(=O)N[C@@H](CCCNC(=N)N)C(=O)N[C@@H](CCCCN)C(=O)N[C@@H](CCC(=O)O)C(=O)N[C@H](C(N)=O)[C@@H](C)CC)NC(=O)[C@H](Cc4c[nH]c5ccccc45)NC(=O)[C@H](CCCC)NC(=O)[C@H](CCCCN)NC(=O)[C@H](CSSC[C@H](NC(=O)[C@H]([C@@H](C)O)NC(=O)[C@H](Cc4c[nH]c5ccccc45)NC(=O)[C@H](CCCC)NC(=O)[C@H](Cc4c[nH]c5ccccc45)NC(=O)[C@H](CCCCN)NC(=O)[C@H](CCC(N)=O)NC1=O)C(=O)N[C@@H](CC(=O)O)C(=O)N[C@@H](CO)C(=O)N[C@@H](CCCCN)C(=O)N[C@@H](CCCNC(=N)N)C(=O)N[C@@H](C)C(=O)N3)NC(=O)[C@H](CCCNC(=N)N)NC(=O)[C@H](CC(C)C)NC(=O)CNC(=O)[C@H](CCC(=O)O)NC2=O | 1.7 nM
C#CC[C@H](N)C(=O)N[C@@H](Cc1ccc(O)cc1)C(=O)N[C@H]1CSSC[C@@H]2NC(=O)[C@@H]3CSSC[C@@H](C(=O)N[C@@H](CCCNC(=N)N)C(=O)N[C@@H](CCCCN)C(=O)N[C@@H](CCC(=O)O)C(=O)N[C@@H](Cc4ccccc4)C(N)=O)NC(=O)[C@H](Cc4c[nH]c5ccc(Br)cc45)NC(=O)[C@H](CC(C)C)NC(=O)[C@H](CCCCN)NC(=O)[C@H](CSSC[C@H](NC(=O)[C@H]([C@@H](C)O)NC(=O)[C@H](Cc4c[nH]c5ccccc45)NC(=O)[C@H](CCCC)NC(=O)[C@H](Cc4c[nH]c5ccccc45)NC(=O)[C@H](CCCCN)NC(=O)[C@H](CCC(N)=O)NC1=O)C(=O)N[C@@H](CC(=O)O)C(=O)N[C@@H](CO)C(=O)N[C@@H](CCCCN)C(=O)N[C@@H](CCCNC(=N)N)C(=O)N[C@@H](C)C(=O)N3)NC(=O)[C@H](CCCNC(=N)N)NC(=O)[C@H](CC(C)C)NC(=O)CNC(=O)[C@H](CCC(=O)O)NC2=O | 1.1 nM
